Source: US8227472B2, “Substituted pyrrolo-pyrazole derivatives as kinase inhibitors” (Nerviano Medical Sciences S.R.L., priority 2006, dated 2012)

Columns and labels:
[1] = molecular target: T1, PLK-1 (Homo sapiens, UniProt P53350); test: Biochemical assay for inhibitors of PLK-1 kinase activity (33P trans-phosphorylation, Dowex); conditions: PLK-1 3 nM, 40 microM ATP, 85 microM alpha-casein
T1 construct: His tag (N, cleaved yes); TEV cleavage site (N, cleaved yes); made in house; host or cells: High5 insect cells (baculovirus generated in Sf9)
Source text: Cloning, Expression and Purification of Recombinant PLK1 Kinase Domain.
PLK1 kinase domain (corresponding to residues 2-345 of the full length sequence, see Swiss-Prot accession number P53350) was PCR amplified from the full-length human PLK1 gene purchased from imaGenes as clone IRATp970A078D.
For cloning purposes, the oligonucleotides included attB sites in order to obtain an attB-flanked PCR product suitable for cloning using the Gateway® technology (Invitrogen). Furthermore, for purification purposes, forward primer included a TEV® cleavage site (Amersham Biosciences). The resulting PCR product was cloned in the pDONR221 plasmid and then transferred in the baculovirus expression vector pVL1393 (Invitrogen) Gateway®-modified. For expression and purification purposes, a His tag was added N-terminal to the PLK kinase domain. Cloning was performed according to the protocols described in the Gateway® manual.
Baculoviruses were generated by cotransfecting Sf9 insect cells with the expression vector and the viral DNA using the BaculoGold® transfection kit (Pharmingen). Viral supernatant was recovered after 5 days and subjected to 3 rounds of amplification to increase viral titer. Recombinant protein was produced by infecting High5 insect cells. After 48 hours of infection, cells were recovered, pelletted and freezed at −80° C. For purification of recombinant protein, pellet was thawed, resuspended in lysis buffer (PBS, NaCl 150 mM, CHAPS 0.1%, DTT 20 mM, glycerol 10%, protease inhibitors) and lysed by sonication. Lysate was cleared by centrifugation and loaded on a Nichel affinity column. After extensive wash, recombinant protein was cleaved and eluted by incubation with TEV® protease.
Biochemical Assay for Inhibitors of PLK-1 Kinase Activity
The inhibitory activity of putative kinase inhibitors and the potency of selected compounds were determined using a trans-phosphorylation assay.
Specific peptide or protein substrates are trans-phosphorylated by their specific serine-threonine or tyrosine kinase, in the presence of ATP traced with ^33P-γ-ATP, and in the presence of their own optimal buffer and cofactors.
At the end of the phosphorylation reaction, more than 98% cold ATP and radioactive ATP is captured by an excess of the ion exchange dowex resin; the resin then settles down to the bottom of the reaction plate by gravity.
Supernatant, containing the phosphorylated substrate, is subsequently withdrawn and transferred into a counting plate, then evaluated by β-counting.
Kinase buffer was composed of 50 mM HEPES pH 7.9 containing 10 mM MnCl2, 1 mM DTT, 3 microM NaVO3, and 0.2 mg/mL BSA, 10 mM β-glycerophosphate.
The kinase assay was run with a final enzyme concentration PLK-1 of 3 nM, in presence of 40 microM ATP, 3 nM ^33P-γ-ATP and 85 microM substrate alpha-casein, SIGMA, #C-3240.
1) 3× Enzyme mix (done in Kinase Buffer 3×), 5 microL/well
2) 3× substrate and ATP mix (done in ddH2O), together with ^33P-γ-ATP, 5 microL/well
3) 3× test compounds (diluted into ddH2O—3% DMSO)—5 microL/well
For % inhibition studies, individual dilution plates at 1 mM, 100 microM and 10 microM are prepared in 100% DMSO, then diluted at a 3× concentration (30, 3 and 0.3 microM) in ddH2O, 3% DMSO. A Multimek 96 (Beckman) is used for dilutions and compound pipetting into the test plates
For IC50 determination, compounds are received as 1 mM, 100% DMSO solutions, plated into the first column of a microtiter plate (A1 to G1), 100 microL.
A Biomek 2000 (Beckman) is used for serial 1:3 dilutions in water, 3% DMSO, from column A1 to A10 and for all the seven compounds in the plate. In a standard experiment, the highest concentration of all compounds is 30 microM, then diluted in the final test mixture down to 10 microM. […]

[2] = test system: A2780 human ovarian cancer cells; test: In vitro cell proliferation assay, A2780 (CellTiter-Glo); assay type: cell-based; conditions: 72 hours
Description: In Vitro Cell Proliferation Assay
A2780 human ovarian and MCF7 human breast cancer cells (1250 cells/well) were seeded in white 384 well-plates in complete medium (RPMI1640 or EMEM plus 10% Fetal bovine serum) and treated with compounds dissolved in 0.1% DMSO, 24 h after seeding. The cells were incubated at 37° C. and 5% CO2 and after 72 hours the plates were processed using CellTiter-Glo assay (Promega) following the manufacturer's instruction.
CellTiter-Glo is a homogenous method based on the quantification of the ATP present, an indicator of metabolitically active cells. ATP is quantified using a system based on luciferase and D-luciferin resulting into light generation. The luminescent signal is proportional to the number of cells present in culture.
Briefly 25 microL/well reagent solution are added to each wells and after 5 minutes shacking microplates are red by a luminometer. The luminescent signal is proportional to the number of cells present in culture.

T1 sequence (P53350 2-345): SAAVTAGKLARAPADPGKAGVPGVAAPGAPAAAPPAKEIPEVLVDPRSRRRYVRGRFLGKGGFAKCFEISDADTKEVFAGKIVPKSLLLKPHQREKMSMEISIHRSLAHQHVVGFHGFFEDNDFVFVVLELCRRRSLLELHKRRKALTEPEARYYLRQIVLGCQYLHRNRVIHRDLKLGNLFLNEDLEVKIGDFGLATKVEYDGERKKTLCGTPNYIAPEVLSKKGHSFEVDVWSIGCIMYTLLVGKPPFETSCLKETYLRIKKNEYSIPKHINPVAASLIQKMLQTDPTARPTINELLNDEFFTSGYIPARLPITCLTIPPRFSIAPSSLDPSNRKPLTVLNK

Compound | IC50 [1] [nM] | IC50 [2] [nM]
CN1CCN(c2ccc(C(=O)Nc3n[nH]c4c3CN(C(=O)Cc3cccs3)C4(C)C)cc2)CC1 [Compound 60, N-[6,6-dimethyl-5-(2-thienylacetyl)-1,4,5,6-tetrahydropyrrolo[3,4-c]pyrazol-3-yl]-4-(4-methylpiperazin-1-yl)benzamide] | 52 | 71
CC1(C)c2[nH]nc(NC(=O)c3cccc(N)c3)c2CN1C(=O)Nc1c(Cl)cccc1Cl [Compound 250, 3-[(3-aminobenzoyl)amino]-N-(2,6-dichlorophenyl)-6,6-dimethyl-4,6-dihydropyrrolo[3,4-c]pyrazole-5(1H)-carboxamide] | 30 | 119
CN1CCN(c2ccc(C(=O)Nc3n[nH]c4c3CN(C(=O)Cc3ccccc3C(F)(F)F)C4(C)C)cc2)CC1 [Compound 44, N-(6,6-dimethyl-5-{[2-(trifluoromethyl)phenyl]acetyl}-1,4,5,6-tetrahydropyrrolo[3,4-c]pyrazol-3-yl)-4-(4-methylpiperazin-1-yl)benzamide] | 75 | 380
CCc1ccccc1NC(=O)N1Cc2c(NC(=O)c3ccc(N4CCN(C)CC4)cc3)n[nH]c2C1(C)C [Compound 178, N-(2-ethylphenyl)-6,6-dimethyl-3-{[4-(4-methylpiperazin-1-yl)benzoyl]amino}-4,6-dihydropyrrolo[3,4-c]pyrazole-5(1H)-carboxamide] | 96 | 19
Cc1ccc(C(=O)Nc2n[nH]c3c2CN(C(=O)Nc2c(Cl)cccc2Cl)C3(C)C)cc1 [Compound 64, N-(2,6-dichlorophenyl)-6,6-dimethyl-3-[(4-methylbenzoyl)amino]-4,6-dihydropyrrolo[3,4-c]pyrazole-5(1H)-carboxamide] | 230 | 209
CC1(C)c2[nH]nc(NC(=O)c3ccc(N)cc3)c2CN1C(=O)Nc1c(Cl)cccc1Cl [Compound 251, 3-[(4-aminobenzoyl)amino]-N-(2,6-dichlorophenyl)-6,6-dimethyl-4,6-dihydropyrrolo[3,4-c]pyrazole-5(1H)-carboxamide] | 24 | 63
